This note sets out measurements from patent US20180296531A1, “STIMULATION OF 11B-HSD2 EXPRESSION TO IMPROVE HORMONAL THERAPY OF STEROID-DEPENDENT DISEASE” (THE CLEVELAND CLINIC FOUNDATION, priority 2015, published 2018).

Each structure is given as a SMILES string.

Assay [1] relates to serum corticosterone. Briefly: Mass spectrometry of corticosterone in mouse serum. The assay is classed as in vivo. As to the method:
Mouse serum analysis. At the endpoint of the xenograft study, mouse serum was collected. 20 μl of mouse serum and internal standard (corticosterone-d8) were precipitated with 200 μl methanol. After centrifugation, the supernatant was transferred to HPLC vials prior to mass spectrometry analysis.
The LC-MS/MS system contains an ultra-pressure liquid chromatography system (Shimadzu Corporation, Japan) which is consisted of two LC-30AD pumps, a DGU-20A5R degasser, a CTO-30A column oven, SIL-30AC autosampler, and a system controller CBM-20A and coupled with a Qtrap 5500 mass spectrometer (AB Sciex). Data acquisition and processing were performed using Analyst® software (version 1.6.2) from ABSciex.
Steroids were ionized using electrospray ionization in positive mode. Quantification of analytes was performed using multiple reaction monitoring. The mass transitions for corticosterone, 11-dehydrocorticosterone, and internal standard are 347.3/121.0, 345.3/121.0, and 355.3/125.0, respectively. Separation of steroids was achieved using a Zorbax Eclipse plus C18 column (Agilent) using mobile phase consisting of (A) 0.2% formic acid in water and (B) 0.2% formic acid in (methanol:acetonitrile, 60:40) with a gradient program at a flow rate of 0.2 ml/min. Sample injection volume was 10 μl.

Assay [2] concerns 11β-HSD2 protein. The assay is described as follows: Immunoblot of 11β-HSD2 protein in prostate cancer cell lines. Format: cell-based, human. As to the method:
(§1) For protein analysis, immunoblots were performed as described previously. Li et al., J Clin Endocrinol Metab 98, E1189-1197 (2013). Briefly, total cellular protein was extracted with ice cold RIPA lysis buffer (Sigma-Aldrich) containing protease inhibitors (Roche). 30-50 μg protein was separated by 8% SDS-PAGE gel and then transferred to a nitrocellulose membrane (Millipore). After incubating with the anti-11β-HSD2 antibody (Santa Cruz; 1:3000), anti-11β-HSD1 antibody (Santa Cruz; 1:1000), GR antibody (BD Biosciences; 1:1000), anti-Erlin-2 antibody (Cell Signaling Technology: 1:1000) or anti-AMFR antibody (Proteintech; 1:1000) overnight at 4° C., the appropriate secondary antibody was incubated for 1 hour at room temperature. The chemiluminescent detection system (Thermo Scientific) was used to detect the bands with peroxidase activity. An anti-β-actin antibody (Sigma-Aldrich; 1:5000) was used as a control for sample loading.

Assay [3] concerns the target T1, 11β-HSD2 (Homo sapiens, UniProt P80365).
T1 construct: FLAG; expressed in transfected cells; host or cells: LAPC4
T1 sequence (P80365 1-405): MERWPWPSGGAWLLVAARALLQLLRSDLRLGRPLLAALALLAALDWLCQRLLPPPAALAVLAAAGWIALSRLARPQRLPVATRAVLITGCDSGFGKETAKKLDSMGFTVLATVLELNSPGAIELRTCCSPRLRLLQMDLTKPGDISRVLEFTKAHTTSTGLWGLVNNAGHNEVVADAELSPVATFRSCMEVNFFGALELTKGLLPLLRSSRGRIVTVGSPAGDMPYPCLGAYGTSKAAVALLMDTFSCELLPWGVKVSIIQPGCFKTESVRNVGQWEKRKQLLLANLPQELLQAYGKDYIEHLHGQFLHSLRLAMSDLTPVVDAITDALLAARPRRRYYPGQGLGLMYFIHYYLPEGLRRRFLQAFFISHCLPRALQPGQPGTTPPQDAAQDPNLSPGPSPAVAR
Briefly: Direct 11β-HSD2 antagonism: cortisol to cortisone conversion in LAPC4 cells transfected with 11β-HSD2 vector. To be noted: LAPC4 transfected with 11β-HSD2 vector, [3H]-cortisol 100 nM. The assay is classed as cell-based. How it is done: Gene expression. The day before transfection, LAPC4 cells were plated into 12 well plates coated with poly-DL-ornithine (˜7×10^5 cells/well). On the day of transfections, an Erlin-2 expressing plasmid, Erlin-2-Myc-DDK-tagged (OriGene) or 11β-HSD2-expressing plasmid FCIV1-11β-HSD2-FLAG was introduced into the cells with Lipofectamine® 3000 Reagent (Life Technology). After 48 hours, the cells were collected and used for the detection of 11β-HSD2 and Erlin-2 by immunoblot, or treated with Enz for 24 hours to determine the effects on cortisol metabolism by HPLC as described herein.

For assay [4], the system named is Erlin-2. Briefly: Immunoblot of Erlin-2 in LAPC4 cells and human prostate tissues. The assay is classed as cell-based. As to the method:
as §1
Seven fresh prostate tissue cores (60-80 mg) from Patients #5-#11 were obtained from the peripheral zone of radical prostatectomy specimens at Cleveland Clinic, confirmed to have tumor in or in close proximity to cores by an expert prostate cancer pathologist, minced and aliquoted to two parts. One was treated with 10 nM DHEA plus vehicle, and the other was treated with 10 nM DHEA plus 10 μM Enz. […]

The subject of assay [5] is GR protein. Briefly: Immunoblot of GR protein in prostate cancer cell lines. The assay is classed as cell-based, human. As to the method:
as §1

Assay [6] relates to LAPC4 xenografts grown in orchiectomized mice. The assay is described as follows: Xenograft cortisol metabolism: [3H]-cortisol inactivation in freshly harvested tumors. Format: in vivo, mouse. To be noted: CRPC xenograft tumors from enzalutamide-treated mice vs orchiectomy alone. How it is done:
Xenograft metabolism. LAPC4 cells (˜10^7) were injected subcutaneously with Matrigel (Corning) into surgically orchiectomized NSG mice that were implanted with DHEA pellets (5 mg/pellet, 90-day sustained-release, Innovative Research of America). Fresh xenografts were harvested and ˜40 mg xenograft tissues were minced, and cultured in IMEM with 10% FBS at 37° C. with a mixture of [^3H]-cortisol and non-radiolabeled cortisol. Aliquots of media were collected at the indicated time points, steroids were extracted and concentrated as described above.

Where [7] appears, read: enzalutamide treated 11β-HSD2 mice.
The mark [8] stands for this setting: enzalutamide treated vector mice.

As to `CNC(=O)c1ccc(N2C(=S)N(c3ccc(C#N)c(C(F)(F)F)c3)C(=O)C2(C)C)cc1F` [enzalutamide], the results for the “serum corticosterone absolute concentration” value in assay [1] (setting [7]) and in assay [1] (setting [8]) were 867 pmol/mL and 873 pmol/mL, respectively. The “serum percentage of corticosterone” value turned out to be 99.85% in assay [1] (setting [7]) and 99.87% in assay [1] (setting [8]). For the same compound, the 11β-HSD2 protein expression result in assay [2] (AR-negative DU145 prostate cancer cell line) is “does not change 11β-HSD2 protein expression”. The 11β-HSD2 protein entry in assay [2] (LAPC4), in assay [2] (MDA-PCa-2b) and in assay [2] (VCaP) was “Loss of 11β-HSD2 protein” in each case. Also, the “direct 11β-HSD2 antagonism” value in assay [3] is “no direct 11β-HSD2 antagonism”. In assay [4] (LAPC4 cells), the Erlin-2 expression result is “consistently up-regulated”. Moreover, in assay [4] (human prostate tissues treated with enzalutamide), the “patient tissues with Erlin-2 up-regulation” value is 8 of 11. For the same compound, the GR protein result in assay [5] (LAPC4) is on record as “increase in GR protein”; in assay [5] (VCaP and MDA-PCa-2b), “increase in GR protein”. For the same compound, the “inactivation of [3H]-cortisol by conversion to cortisone” value in assay [6] was “impaired capability of inactivating [^3H]-cortisol”.
